ChEMBL document CHEMBL2062370, “Identification of glycogen synthase kinase-3 inhibitors with a selective sting for glycogen synthase kinase-3α” (J Med Chem, 2012)

Assays:
[1] = organism: Danio rerio; test: Toxicity in wild type zebrafish embryo assessed as mortality up to 30 uM treated 5 hrs after post fertilization measured 5 days after post fertilization by microscopy; format: organism-based; conditions: in vivo, 120 h
[2] = target: Glycogen synthase kinase-3 beta (Homo sapiens, UniProt P49841); test: Inhibition of human recombinant GSK3beta
[3] = target: Glycogen synthase kinase-3 alpha (Homo sapiens, UniProt P49840); test: Inhibition of human recombinant GSK3alpha
[4] = tested on: Caco-2; test: Permeability from apical to basolateral side of human Caco2 cells at pH 6.5/7.4 after 60 mins by HPLC MS/ Mass spectroscopic analysis; format: ADME, cell-based; conditions: caco-2, pH 6.5, 1 h
[5] = Octanol-phosphate buffer partition coefficient, log D of the compound at 100 uM at pH 7.4 after 60 mins by HPLC-UV/VIS spectroscopic analysis; format: physicochemical
[6] = Aqueous solubility of the compound at 200 uM at pH 7.4 in phosphate buffer saline after 24 hrs by HPLC-UV/VIS spectroscopic analysis; format: physicochemical; conditions: pH 7.4, 24 h
[7] = target: Casein kinase I isoform epsilon (Homo sapiens, UniProt P49674); test: Inhibition of human recombinant CK1epsilon by FRET assay
[8] = target: T1, Aurora kinase A (Homo sapiens, UniProt O14965); test: Inhibition of human recombinant AurKA by FRET assay
T1 sequence (O14965 whole entry): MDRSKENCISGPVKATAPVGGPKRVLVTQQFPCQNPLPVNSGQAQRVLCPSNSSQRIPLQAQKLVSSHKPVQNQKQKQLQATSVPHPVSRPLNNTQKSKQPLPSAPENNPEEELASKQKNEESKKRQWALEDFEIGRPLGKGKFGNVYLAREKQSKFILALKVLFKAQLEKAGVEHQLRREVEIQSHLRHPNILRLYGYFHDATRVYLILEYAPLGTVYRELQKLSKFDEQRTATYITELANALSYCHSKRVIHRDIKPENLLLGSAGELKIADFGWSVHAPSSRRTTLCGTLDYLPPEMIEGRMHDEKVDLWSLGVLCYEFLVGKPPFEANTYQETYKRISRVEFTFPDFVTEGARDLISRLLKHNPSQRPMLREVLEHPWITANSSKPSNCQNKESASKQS

[9] = target: Protein kinase C alpha type (Homo sapiens, UniProt P17252); test: Inhibition of human recombinant PKCalpha by FRET assay
[10] = tested on: Liver microsomes; test: Metabolic stability in human liver microsomes after 60 mins by HPLC MS/ Mass spectroscopic analysis; format: ADME, Microsome; conditions: 1 h
[11] = target: Cyclin-dependent kinase 5/CDK5 activator 1 (Homo sapiens, UniProt Q00535); test: Inhibition of human recombinant CDK5/p35 by FRET assay; format: protein-complex assay
Chain of Cyclin-dependent kinase 5/CDK5 activator 1 (Q00535 whole entry): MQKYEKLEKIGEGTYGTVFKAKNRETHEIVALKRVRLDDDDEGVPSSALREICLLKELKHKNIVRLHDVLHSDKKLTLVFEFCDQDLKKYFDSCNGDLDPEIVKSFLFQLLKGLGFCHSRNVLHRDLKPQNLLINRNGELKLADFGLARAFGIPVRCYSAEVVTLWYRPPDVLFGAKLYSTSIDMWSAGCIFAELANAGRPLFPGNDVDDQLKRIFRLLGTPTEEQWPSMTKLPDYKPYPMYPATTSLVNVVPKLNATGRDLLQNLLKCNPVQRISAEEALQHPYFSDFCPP
Chain of Cyclin-dependent kinase 5/CDK5 activator 1 (Q15078 whole entry, further chain): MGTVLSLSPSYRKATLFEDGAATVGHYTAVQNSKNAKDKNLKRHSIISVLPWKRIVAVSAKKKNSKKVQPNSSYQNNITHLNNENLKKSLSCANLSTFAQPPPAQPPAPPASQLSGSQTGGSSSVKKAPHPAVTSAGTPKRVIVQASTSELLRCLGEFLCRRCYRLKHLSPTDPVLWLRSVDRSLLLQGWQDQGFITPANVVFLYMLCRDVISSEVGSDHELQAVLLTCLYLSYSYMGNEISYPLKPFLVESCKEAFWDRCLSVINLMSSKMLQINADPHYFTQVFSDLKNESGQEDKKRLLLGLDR

Chain of Glycogen synthase kinase-3 beta (P49841 whole entry): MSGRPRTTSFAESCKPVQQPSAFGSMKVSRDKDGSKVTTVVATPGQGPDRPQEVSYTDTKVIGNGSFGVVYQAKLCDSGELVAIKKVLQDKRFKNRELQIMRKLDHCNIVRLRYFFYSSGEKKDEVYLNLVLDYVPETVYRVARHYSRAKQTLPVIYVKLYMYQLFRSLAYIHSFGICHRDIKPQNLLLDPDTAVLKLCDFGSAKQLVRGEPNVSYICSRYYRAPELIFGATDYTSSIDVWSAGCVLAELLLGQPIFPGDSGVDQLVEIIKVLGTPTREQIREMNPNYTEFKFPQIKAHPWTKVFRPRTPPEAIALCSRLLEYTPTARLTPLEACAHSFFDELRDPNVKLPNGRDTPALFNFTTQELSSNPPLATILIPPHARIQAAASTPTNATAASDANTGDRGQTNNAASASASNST
Chain of Glycogen synthase kinase-3 alpha (P49840 whole entry): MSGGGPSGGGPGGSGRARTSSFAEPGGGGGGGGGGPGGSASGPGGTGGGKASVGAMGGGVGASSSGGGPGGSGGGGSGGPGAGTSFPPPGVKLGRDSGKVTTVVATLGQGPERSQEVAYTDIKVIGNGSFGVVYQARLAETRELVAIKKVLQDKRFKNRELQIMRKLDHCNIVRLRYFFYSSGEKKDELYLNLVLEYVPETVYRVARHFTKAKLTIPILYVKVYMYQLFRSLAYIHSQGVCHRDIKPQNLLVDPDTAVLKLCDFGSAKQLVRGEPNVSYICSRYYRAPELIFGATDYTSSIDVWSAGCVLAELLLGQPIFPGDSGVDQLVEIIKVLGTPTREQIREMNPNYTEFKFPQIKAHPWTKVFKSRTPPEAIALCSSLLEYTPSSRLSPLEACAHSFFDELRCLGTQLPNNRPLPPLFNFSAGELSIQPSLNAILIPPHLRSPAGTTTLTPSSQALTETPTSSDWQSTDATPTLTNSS
Chain of Casein kinase I isoform epsilon (P49674 whole entry, canonical isoform): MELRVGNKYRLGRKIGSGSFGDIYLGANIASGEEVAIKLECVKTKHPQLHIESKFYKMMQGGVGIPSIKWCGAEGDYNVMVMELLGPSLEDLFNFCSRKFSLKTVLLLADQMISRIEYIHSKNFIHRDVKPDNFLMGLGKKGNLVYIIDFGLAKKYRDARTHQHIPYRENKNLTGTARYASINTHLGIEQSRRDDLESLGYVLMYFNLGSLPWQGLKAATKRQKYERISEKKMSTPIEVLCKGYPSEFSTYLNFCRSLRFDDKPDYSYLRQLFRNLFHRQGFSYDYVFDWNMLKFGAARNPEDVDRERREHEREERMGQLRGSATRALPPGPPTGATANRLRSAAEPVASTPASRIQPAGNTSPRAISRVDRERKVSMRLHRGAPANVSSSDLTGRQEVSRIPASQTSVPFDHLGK

| Structure (SMILES) | Activity [1] | IC50 [2] | IC50 [3] | permeability [4] | logD at 1 h, 100 µM [5] | solubility [6] | IC50 [7] | IC50 [8] | IC50 [9] | Stability [10] | IC50 [11] |
| --- | --- | --- | --- | --- | --- | --- | --- | --- | --- | --- | --- |
| N#Cc1ccc(CSc2nnc(-c3ccncc3)o2)cc1 | Non-toxic | 10 µM | 7.38 µM |  |  |  |  |  |  |  |  |
| N#Cc1ccc(-c2ccc(CSc3nnc(-c4ccc5c(c4)OCO5)o3)cc2)cc1 | Non-toxic |  |  | impermeable | 3.58 | Insoluble | 60 µM | 30 µM | > 100 µM | Stable | > 100 µM |
| N#Cc1cccc(CSc2nnc(-c3ccc4c(c3)OCO4)o2)c1 | Non-toxic | 0.065 µM | 0.015 µM |  |  |  |  |  |  |  |  |
| N#Cc1ccc(CSc2nnc(-c3ccc4c(c3)OCO4)o2)cc1 | Non-toxic | 0.13 µM | 0.015 µM |  |  |  |  |  |  |  |  |
| N#Cc1cccc(CSc2nnc(-c3ccc4c(c3)OCCO4)o2)c1 | Non-toxic | 0.086 µM | 0.095 µM |  |  |  |  |  |  |  |  |
| N#Cc1ccc(CSc2nnc(-c3ccc4c(c3)OCCO4)o2)cc1 | Non-toxic | 0.166 µM | 0.045 µM |  |  |  |  |  |  |  |  |
| COC(=O)c1ccc(CSc2nnc(-c3ccc4c(c3)OCCO4)o2)cc1 | Non-toxic |  |  |  |  |  | > 100 µM | > 100 µM | > 100 µM |  | > 100 µM |
| N#Cc1cccc(CSc2nnc(-c3ccncc3)o2)c1 | Non-toxic | 3.16 µM | 3.21 µM |  |  |  |  |  |  |  |  |
| c1cc(-c2nnn[nH]2)ccc1CSc1nnc(-c2ccc3c(c2)OCO3)o1 | Non-toxic | 0.172 µM | 0.107 µM |  |  |  |  |  |  |  |  |
| COC(=O)c1ccc(CSc2nnc(-c3ccc4c(c3)OCO4)o2)cc1 | Non-toxic |  |  |  |  |  |  |  |  |  |  |
| O=C(O)c1ccc(CSc2nnc(-c3ccc4c(c3)OCO4)o2)cc1 | Non-toxic |  |  |  |  |  |  |  |  |  |  |
| CC(C)CNC(=O)c1ccc(CSc2nnc(-c3ccc4c(c3)OCO4)o2)cc1 | Non-toxic |  |  |  |  |  |  |  |  |  |  |
| COC(CNC(=O)c1ccc(CSc2nnc(-c3ccc4c(c3)OCO4)o2)cc1)OC | Non-toxic |  |  |  |  |  |  |  |  |  |  |
| O=C(O)c1ccc(CSc2nnc(-c3ccc4c(c3)OCCO4)o2)cc1 | Non-toxic |  |  |  |  |  |  |  |  |  |  |
| CC(C)CNC(=O)c1ccc(CSc2nnc(-c3ccc4c(c3)OCCO4)o2)cc1 | Non-toxic |  |  |  |  |  |  |  |  |  |  |
| COC(CNC(=O)c1ccc(CSc2nnc(-c3ccc4c(c3)OCCO4)o2)cc1)OC | Non-toxic |  |  |  |  |  |  |  |  |  |  |
| O=C(NCc1ccccc1)c1ccc(CSc2nnc(-c3ccc4c(c3)OCCO4)o2)cc1 | Non-toxic |  |  |  |  |  |  |  |  |  |  |
| c1ccc(-c2ccc(CSc3nnc(-c4ccc5c(c4)OCO5)o3)cc2)cc1 | Non-toxic | 0.176 µM | 0.009 µM |  |  |  | > 100 µM | > 100 µM | > 100 µM |  | > 100 µM |
| N#Cc1cc(F)ccc1-c1ccc(CSc2nnc(-c3ccc4c(c3)OCO4)o2)cc1 | Non-toxic | 0.022 µM | 0.003 µM |  |  |  | 20 µM | 30 µM | > 100 µM |  | > 100 µM |
| N#Cc1ccccc1-c1ccc(CSc2nnc(-c3ccc4c(c3)OCO4)o2)cc1 | Non-toxic | 0.039 µM | < 0.005 µM |  |  |  | > 100 µM | > 100 µM | > 100 µM |  | > 100 µM |
| N#Cc1ccccc1-c1ccc(CSc2nnc(-c3ccc4c(c3)OCCO4)o2)cc1 | Non-toxic | < 0.005 µM | < 0.005 µM |  |  |  | > 100 µM | > 100 µM | > 100 µM |  | > 100 µM |
| N#Cc1cc(F)ccc1-c1ccc(CSc2nnc(-c3ccc4c(c3)OCCO4)o2)cc1 | Non-toxic |  |  |  |  |  | > 100 µM | 5 µM | > 100 µM |  | > 100 µM |
| N#Cc1ccccc1-c1ccc(CSc2nnc(-c3ccncc3)o2)cc1 | Non-toxic | 0.041 µM | 0.019 µM |  |  |  | > 100 µM | > 100 µM | > 100 µM |  | > 100 µM |
| COC[C@@H]1COc2ccc(-c3nnc(SCc4ccc(-c5ccccc5C#N)cc4)o3)cc2O1 | Non-toxic | 0.758 µM | 0.195 µM |  |  |  | > 100 µM | > 100 µM | > 100 µM |  | > 100 µM |
| COC[C@H]1COc2ccc(-c3nnc(SCc4ccc(-c5ccccc5C#N)cc4)o3)cc2O1 | Non-toxic | 0.129 µM | 0.015 µM |  |  |  | > 100 µM | > 100 µM | > 100 µM |  | > 100 µM |
| Ic1cccc(CSc2nnc(-c3ccncc3)o2)c1 | Non-toxic |  | 0.39 µM |  |  |  |  |  |  |  |  |
| c1ccc(CSc2nnc(-c3ccncc3)o2)cc1 | Non-toxic | 1.32 µM | 2.24 µM |  |  |  |  |  |  |  |  |
| COCC1COc2ccc(-c3nnc(SCc4ccc(-c5ccccc5C#N)cc4)o3)cc2O1 (racemic) | Non-toxic | 0.233 µM | 0.054 µM |  |  |  | > 100 µM | 30 µM | > 100 µM |  | > 100 µM |
